Measured values from patent US9522133B2, “Substituted 1,2,3,4-tetrahydrocyclopenta[b]indol-3-yl)acetic acid derivatives useful in the treatment of autoimmune and inflammatory disorders” (Arena Pharmaceuticals, Inc., priority 2008, dated 2016).
Each block holds one molecule with its values, some of them ahead of it.

Columns and labels:
[1] = system: peripheral blood lymphocyte (PBL) count; experiment: Rat peripheral lymphocyte lowering (PLL) assay; assay type: in vivo; conditions: male Sprague-Dawley rats, 1.00 mg/kg oral dose, 5 hours post-dose, vs vehicle; FIG. 8
Description: (§1) Male Sprague-Dawley rats (7 weeks of age at start of study) (Charles River Laboratories) were housed two per cage and maintained in a humidity-controlled (40-60%) and temperature-controlled (68-72° F.) facility on a 12 h:12 h light/dark cycle (lights on at 6:30 am) with free access to food (Harlan Teklad, Orange, Calif., Rodent Diet 8604) and water. Rats were allowed one week of habituation to the animal facility before testing.
(§2) Rats were given a 1.00 mg/kg oral dose of the 2nd enantiomer of compound 12 (isolated after resolution of compound 12 by HPLC, with a retention time of 13.9 min per the conditions reported in Example 1.29) or dosing vehicle (0.5% methylcellulose in sterile water) in a total volume of 1.00 mL/kg. Peripheral blood samples were collected at 5 hours post-dose. Blood was collected via indwelling catheter. A complete cell count (CBC), including lymphocyte count, was obtained using a CELL-DYN® 3700 (Abbott Laboratories, Abbott Park, Ill.) instrument. Results are presented in FIG. 8, in which peripheral blood lymphocyte (PBL) count is shown for the 5 hour group.

[2] = system: MOG-induced EAE; experiment: MOG-induced experimental autoimmune encephalomyelitis (EAE) in mice; assay type: in vivo, mouse; conditions: female C57BL/6 mice, oral once a day day 3 to day 21, 0.3, 1 and 3 mg/kg; FIG. 10
Description: as §1, with “Female C57BL/6 mice (8 to 10” for “Male Sprague-Dawley rats (7”, “(Jackson Laboratory, Bar Harbor, Me.)” for “(Charles River Laboratories)”, “four” for “two”, “Mice” for “Rats”
Mice were immunized subcutaneously, 50 μL per hind flank, with a total of 100 μg MOG35-55 peptide emulsified 1:1 with Complete Freund's adjuvant containing 4 mg/mL heat-killed Mycobacterium tuberculosis. […]
Severity of disease symptoms was scored as follows (in increasing order of severity): 0=normal; 1=limp tail OR hind limb weakness; 2=limp tail AND limb weakness/weakness of 2 or more limbs; 3=severe limb weakness or single limb paralysis; 4=paralysis of 2 or more limbs; 5=death.
Mice were dosed orally, with vehicle or the 2nd enantiomer of compound 12 (isolated after resolution of compound 12 by HPLC, with a retention time of 13.9 min per the conditions reported in Example 1.29), once a day from day 3 until day 21. […] Mice were monitored daily from day 7 onward for disease symptoms. After the last dose on day 21, disease progression was monitored daily for 2 more weeks.

[3] = system: peripheral blood lymphocyte (PBL) count; experiment: Mouse peripheral lymphocyte lowering (PLL) assay; assay type: in vivo; conditions: male BALB/c mice, 5 hours post-dose, vs vehicle
Description: as §1, with “BALB/c mice” for “Sprague-Dawley rats (7 weeks of age at start of study)”, “Laboratories, Wilmington, Mass.)” for “Laboratories)”, “four” for “two”, “(40 to 60%)” for “(40-60%)”, “(68 to 72°” for “(68-72°”, “Mice” for “Rats”
Mice were given an oral dose of Compound 5, Compound 7 or dosing vehicle (0.5% methylcellulose) in a total volume of 10 mL/kg. Peripheral blood samples were collected at 5 hours post-dose. The mice were anesthetized with isoflurane and blood was collected via cardiac puncture. A complete cell count (CBC), including lymphocyte count, was obtained using a CELL-DYN® 3700 (Abbott Laboratories, Abbott Park, Ill.) instrument. Results are presented in FIGS. 1 and 2, in which peripheral blood lymphocyte (PBL) count is shown for the 5 hour group.
as §2, with “Mice were” for “Rats were”, “of 10” for “of 1.00”, “post-dose. The mice were anesthetized with isoflurane and blood” for “post-dose. Blood”, “via cardiac puncture.” for “via indwelling catheter.”, “FIG. 7,” for “FIG. 8,”

[4] = system: mean ankle diameter; experiment: Collagen-induced arthritis in rats (ankle diameter); assay type: in vivo, rat; conditions: female Lewis rats, collagen injections day 0 and 6, p.o. q.d. day 0-16, 0.3, 1 and 3 mg/kg; FIG. 9
Description: Female Lewis rats were used in this study. Acclimated animals were anesthetized with isoflurane and given the first collagen injection (day 0). On day 6, they were anesthetized again for the second collagen injection. Collagen was prepared by making a 4 mg/mL solution in 0.01 N acetic acid. Equal volumes of collagen and incomplete Freund's adjuvant were emulsified by hand mixing until a bead of this material held its form when placed in water. Each animal received 300 μL of the mixture each time, spread over 3 subcutaneous sites on the back.
Treatment (p.o., q.d., 5 mL/kg dosing volume) began on day 0 and continued through day 16 with vehicle or compounds given at 24 h intervals. Rats were weighed on days 0, 3, 6 and 9 through 17 and caliper measurements of the ankles taken on days 9 through 17. The 2nd enantiomer of compound 12 (isolated after resolution of compound 12 by HPLC, with a retention time of 13.9 min per the conditions reported in Example 1.29) was dosed at 0.3, 1 and 3 mg/kg.

[5] = Cardiac telemetry / bradycardia assay in the rat; assay type: in vivo; conditions: male Sprague-Dawley rats, oral, vehicle PEG400, heart rate over a 120 min period; FIG. 11
Description: Male Sprague-Dawley rats (250-300 g at time of surgery) were implanted by Charles River Laboratories (Wilmington, Mass.) with cardiac transmitting devices (Data Sciences PhysioTel C50-PXT) into the peritoneal space, with a pressure-sensing catheter inserted into the descending aorta. Rats are allowed at least one week to recover. Rats were housed in individual cages and maintained in a humidity-controlled (30-70%) and temperature-controlled (20-22° C.) facility on a 12 h:12 h light/dark cycle (lights on at 7:00 am) with free access to food (Harlan-Teklad, Orange, Calif., Rodent Diet 8604) and water. Rats were allowed one week of habituation to the animal facility before testing.
The implanted transmitting devices transmitted continuous measurements of blood pressure (systolic, diastolic, mean arterial, pulse), heart rate, body temperature, and motor activity in freely moving conscious animals. […] Telemetry recording occurred over a 21-h period, starting at noon and continuing until 9:00 am the following day. […]
By way of illustration and not limitation, the rats were administered vehicle (PEG 400) and the 2nd enantiomer of compound 12 (isolated after resolution of compound 12 by HPLC, with a retention time of 13.9 min per the conditions reported in Example 1.29) and heart rate was then measured over a 120 min period.

[6] = target: T1, S1P1 receptor (Homo sapiens, UniProt P21453); experiment: HTRF assay for direct cAMP measurement (S1P1 agonism); assay type: cell-based; conditions: recombinant CHO-K1 cells stably transfected with S1P1 receptors; decrease of cAMP
T1 construct: expressed in transfected cells; host or cells: CHO-K1 (ATCC CCL-61), stably transfected
From the text: Compounds were screened for agonists of the S1P1 receptor (e.g., human S1P1 receptor) using the HTRF® assay for direct cAMP measurement (Gabriel et al., Assay and Drug Development Technologies, 1:291-303, 2003) and recombinant CHO-K1 cells stably transfected with S1P1 receptors. CHO-K1 cells were obtained from ATCC® (Manassas, Va.; Catalog # CCL-61). An agonist of the S1P1 receptor was detected in the HTRF® assay for direct cAMP measurement as a compound which decreased cAMP concentration. HTRF® assay also was used to determine EC50 values for S1P1 receptor agonists.
HTRF® assay kit was purchased from Cisbio-US, Inc. (Bedford, Mass.; Catalog #62AM4PEC). The HTRF® assay supported by the kit is a competitive immunoassay between endogenous cAMP produced by the CHO-K1 cells and tracer cAMP labeled with the dye d2. The tracer binding is visualized by a monoclonal anti-cAMP antibody labeled with Cryptate. The specific signal (i.e., fluorescence resonance energy transfer, FRET) is inversely proportional to the concentration of unlabeled cAMP in the standard or sample.
The fluorescence ratio (665 nm/620 nm) of the standards (0.17 to 712 nM cAMP) included in the assay was calculated and used to generate a cAMP standard curve according to the kit manufacturer's instructions. The fluorescence ratio of the samples (test compound or compound buffer) was calculated and used to deduce respective cAMP concentrations by reference to the cAMP standard curve.
The HTRF® assay was carried out using a two-step protocol essentially according to the kit manufacturer's instructions, in 20 μL total volume per well in 384-well plate format (ProxiPlates; PerkinElmer, Fremont, Calif.; catalog #6008280). […] The plate was then further incubated at room temperature for 1 hour, after which the assay plate was read.
HTRF® readout was accomplished using a PHERAstar (BMG LABTECH Inc., Durham, N.C.) or EnVision™ (PerkinElmer, Fremont Calif.) microplate reader.

[7] = system: experimental autoimmune myasthenia gravis (EAMG); conditions: prophylactic oral administration, 1 mg/kg, three times a week, C57BL/6 mice; cited from earlier work
[8] = target: S1P3 receptor (Homo sapiens, UniProt Q99500); conditions: attributed to agonism of the S1P3 receptor; cited from earlier work
Chain of S1P3 receptor (Q99500 whole entry): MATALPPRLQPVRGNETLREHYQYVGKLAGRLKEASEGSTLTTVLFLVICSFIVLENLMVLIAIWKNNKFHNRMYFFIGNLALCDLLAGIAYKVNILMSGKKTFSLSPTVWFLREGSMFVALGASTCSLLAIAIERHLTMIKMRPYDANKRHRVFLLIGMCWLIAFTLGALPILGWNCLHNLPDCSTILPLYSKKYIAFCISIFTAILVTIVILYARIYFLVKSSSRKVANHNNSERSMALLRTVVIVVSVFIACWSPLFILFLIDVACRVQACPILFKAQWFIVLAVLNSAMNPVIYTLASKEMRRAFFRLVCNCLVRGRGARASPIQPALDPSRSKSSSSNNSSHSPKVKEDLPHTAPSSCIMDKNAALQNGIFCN

T1 sequence (P21453 whole entry): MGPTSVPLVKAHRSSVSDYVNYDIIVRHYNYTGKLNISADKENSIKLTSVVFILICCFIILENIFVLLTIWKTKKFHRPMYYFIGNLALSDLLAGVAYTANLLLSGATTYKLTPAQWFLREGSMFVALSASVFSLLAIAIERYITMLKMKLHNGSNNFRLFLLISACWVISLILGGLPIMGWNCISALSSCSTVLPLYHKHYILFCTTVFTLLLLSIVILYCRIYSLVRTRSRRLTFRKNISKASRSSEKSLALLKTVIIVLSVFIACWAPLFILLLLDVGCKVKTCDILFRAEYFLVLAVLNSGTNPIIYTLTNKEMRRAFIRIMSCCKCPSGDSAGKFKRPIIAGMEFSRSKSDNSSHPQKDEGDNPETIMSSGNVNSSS

Compound: O=C(O)C[C@H]1CCc2c1[nH]c1ccc(OCc3ccc(C4CCCC4)c(C(F)(F)F)c3)cc21 [2nd enantiomer of compound 12, (R)-2-(7-(4-cyclopentyl-3-(trifluoromethyl)benzyloxy)-1,2,3,4-tetrahydrocyclopenta[b]indol-3-yl)acetic acid]
activity for inducing PBL lowering (lymphopenia) [1]: exhibited activity for inducing PBL lowering (lymphopenia)
reduction of severity of disease symptoms (clinical score) in EAE [2]: exhibited activity in the mouse EAE assay
activity for inducing PBL lowering (lymphopenia) ([3]; 1.00 mg/kg oral dose, FIG. 7): exhibited activity for inducing PBL lowering (lymphopenia)
reduction of mean ankle diameter [4]: exhibited activity for reducing mean ankle diameter
reduction of heart rate (bradycardia) [5]: no or substantially no reduction of heart rate

EC50 [6]: 16 nM
Compound: N#Cc1cc(COc2ccc3[nH]c4c(c3c2)CCC4CC(=O)O)cc(OC(F)(F)F)c1 (stereo not drawn) [Compound 4, 2-(7-(3-cyano-5-(trifluoromethoxy)benzyloxy)-1,2,3,4-tetrahydrocyclopenta[b]indol-3-yl)acetic acid]

Compound: CC(C)Oc1ccc(COc2ccc3[nH]c4c(c3c2)CCC4CC(=O)O)cc1C#N (stereo not drawn) [Compound 5, 2-(7-(3-cyano-4-issopropoxybenzyloxy)-1,2,3,4-tetrahydrocyclopenta[b]indol-3-yl)acetic acid]
activity for inducing PBL lowering (lymphopenia) ([3]; oral dose, FIGS. 1 and 2): exhibited activity for inducing PBL lowering (lymphopenia)

Compound: N#Cc1cc(COc2ccc3[nH]c4c(c3c2)CCC4CC(=O)O)ccc1OC(F)(F)F (stereo not drawn) [Compound 7, 2-(7-(3-cyano-4-(trifluoromethoxy)benzyloxy)-1,2,3,4-tetrahydrocyclopenta[b]indol-3-yl)acetic acid]
activity for inducing PBL lowering (lymphopenia) ([3]; oral dose, FIGS. 1 and 2): exhibited activity for inducing PBL lowering (lymphopenia)

EC50 [6]: 9 nM
Compound: O=C(O)CC1CCc2c1[nH]c1ccc(OCc3ccc(C(F)(F)F)cc3C(F)(F)F)cc21 (stereo not drawn) [Compound 8, 2-(7-(2,4-bis(trifluoromethyl)benzyloxy)-1,2,3,4-tetrahydrocyclopenta[b]indol-3-yl)acetic acid]

EC50 [6]: 26 nM
Compound: O=C(O)CC1CCc2c1[nH]c1ccc(OCc3cc(C(F)(F)F)cc(C(F)(F)F)c3)cc21 (stereo not drawn) [Compound 10, 2-(7-(3,5-bis(trifluoromethyl)benzyloxy)-1,2,3,4-tetrahydrocyclopenta[b]indol-3-yl)acetic acid]

Compound: CCCCCCCCc1ccc(CCC(N)(CO)CO)cc1 [FTY720]
development of EAMG [7]: completely prevented
adverse event in clinical trials [8]: transient asymptomatic bradycardia
